# Where two headings read alike, the source gives them in different places.
# Key:
# [1] = tested on: velvetleaf; assay: Test C pre-/postemergence herbicide test; format: in vivo, Abutilon theophrasti
# How it was run: (§1)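 Visual ratings on a 0–100 scale (100 = complete control) made versus untreated controls after 12 to 14 greenhouse days. Test chemicals, formulated in surfactant-containing non-phytotoxic solvent, applied preemergence to planted seeds or postemergence to 1- to 4-leaf plants (2 to 18 cm).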
# [2] = tested on: woolly cupgrass; assay: Test C pre-/postemergence herbicide test; format: in vivo, Eriochloa villosa
# How it was run: as §1
# [3] = tested on: yellow nutsedge; assay: Test C pre-/postemergence herbicide test; format: in vivo, Cyperus esculentus
# How it was run: as §1
# [4] = tested on: bermudagrass; assay: Test C pre-/postemergence herbicide test; format: in vivo, Cynodon dactylon
# How it was run: as §1
# [5] = tested on: giant foxtail; assay: Test C pre-/postemergence herbicide test; format: in vivo, Setaria faberi
# How it was run: as §1
# [6] = tested on: common (oilseed) sunflower; assay: Test C pre-/postemergence herbicide test; format: in vivo, Helianthus annuus; conditions: preemergence
# Excerpt: Seeds of plant species selected from bermudagrass (Cynodon dactylon (L.) Pers.), Surinam grass (Urochloa decumbens (Staph) R. D. Webster, previously named Brachiaria decumbens Stapf), cocklebur (Xanthium strumarium L.), corn (Zea mays L.), large crabgrass (Digitaria sanguinalis (L.) Scop.), woolly cupgrass (Eriochloa villosa (Thunb.) Kunth), giant foxtail (Setaria faberi Herrm.), goosegrass (Eleusine indica (L.) Gaertn.), johnsongrass (Sorghum halepense (L.) Pers.), kochia (Kochia scoparia (L.) Schrad.), lambsquarters (Chenopodium album L.), morningglory (Ipomoea coccinea L.), eastern black nightshade (Solanum ptycanthum Dunal), yellow nutsedge (Cyperus esculentus L.), pigweed (Amaranthus retroflexus L.), common ragweed (Ambrosia elatior L.), soybean (Glycine max (L.) Merr.), common (oilseed) sunflower (Helianthus annuus L.) and velvetleaf (Abutilon theophrasti Medik.) were planted and treated preemergence with test chemicals formulated in a non-phytotoxic solvent mixture which included a surfactant.
# At the same time, plants selected from these crop and weed species and also winter barley (Hordeum vulgare L.), blackgrass (Alopecurus myosuroides Huds.), canarygrass (Phalaris minor Retz.), chickweed (Stellaria media (L.) Vill.), downy bromegrass (Bromus tectorum L.), green foxtail (Setaria viridis (L.) Beauv.), Italian ryegrass (Lolium multiflorum Lam.), wheat (Triticum aestivum L.), wild oat (Avenafatua L.) and windgrass (Apera spica-venti (L.) Beauv.) were treated with postemergence applications of some of the test chemicals formulated in the same manner. Plants ranged in height from 2 to 18 cm (1- to 4-leaf stage) for postemergence treatments. Plant species in the flooded paddy test consisted of rice (Oryza sativa), smallflower umbrella sedge (Cyperus difformis L.), ducksalad (Heteranthera limosa (Sw.) Willd.) and barnyardgrass (Echinochloa crus-galli (L.) Beauv.) grown to the 2-leaf stage for testing. Treated plants and controls were maintained in a greenhouse for 12 to 14 days, after which time all species were compared to controls and visually evaluated. Plant response ratings, summarized in Table C, are based on a scale of 0 to 100 where 0 is no effect and 100 is complete control. A dash (-) response means no test result.
# [7] = tested on: barnyardgrass; assay: Test C flooded paddy test; format: in vivo, Echinochloa crus-galli; conditions: for Plant response rating, Barnyardgrass: 500 g ai/ha, visual rating after 12 to 14 days
# How it was run: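 Weeds and wheat were sprayed after emergence, at a height of 2 to 18 cm (1–4 leaves), and paddy barnyardgrass was flooded and treated at two leaves. Assessment took place 12–14 days later in the greenhouse on a 0-to-100 visual control scale. A dash means no result was obtained.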
# [8] = tested on: morningglory; assay: Test A pre-/postemergence herbicide test; format: in vivo, Ipomoea spp.; conditions: Ipomoea, 240 h; for pest or weed control at 500 g/ha: 500 g ai/ha; for pest or weed control at 2000 g/ha: 2000 g ai/ha
# How it was run: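 Visual injury scores on a 0–100 scale (100 = complete control) taken about ten days post-treatment in greenhouse against untreated controls; dash means no result. Treatments: preemergence soil spray and postemergence spray to runoff on one- to two-leaf plants 2 to 10 cm tall, surfactant-containing formulation.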
# [9] = 62 g ai/ha, preemergence, scale 0 to 100
# [10] = 500 g ai/ha, scale 0 to 100 (0 no effect, 100 complete control), visual, 12 to 14 days, preemergence
# [11] = 250 g ai/ha, scale 0-100, preemergence
# [12] = 62 g ai/ha, preemergence, scale 0 to 100, 0 no effect, 100 complete control
# [13] = 62 g ai/ha, scale 0 to 100 (0 no effect, 100 complete control)
# [14] = 125 g ai/ha, scale 0 to 100 (0 no effect, 100 complete control)
# [15] = 250 g ai/ha, scale of 0 to 100, 0 is no effect, 100 is complete control
# [16] = scale 0 to 100 (0 no effect, 100 complete control)
# [17] = Postemergence, 250 g ai/ha, scale 0 to 100, 0 no effect, 100 complete control
# [18] = postemergence, 125 g ai/ha, scale 0 to 100
# [19] = postemergence, 62 g ai/ha, scale 0 to 100
# [20] = Postemergence, 500 g ai/ha, scale 0 to 100
# [21] = post-emergence, Postemergence, 0 to 100 scale, 0 no effect, 100 complete control, read-out: Plant response rating, Morningglory
smiles,measurement,setting,value
CCNC(=S)c1cccc(NC(=O)c2nn(C(C)(C)C)nc2C)c1 [Compound 420],"Plant response rating, Velvetleaf",[1]; [9],80
same,"Plant response rating (0 = no effect, 100 = complete control), Velvetleaf","[1]; 125 g ai/ha, preemergence",100
same,"Plant response rating, Velvetleaf",[1]; [10],100
same,"Plant response rating, Cupgrass, Woolly",[2]; [9],0
same,"Plant response rating (0 = no effect, 100 = complete control), Cupgrass, Woolly","[2]; 125 g ai/ha, preemergence",10
same,"Plant response rating, Cupgrass, Woolly",[2]; [11],20
same,"Plant response rating, Cupgrass, Woolly",[2]; [10],65
same,"Plant response rating, Nutsedge, Yellow",[3]; [9],0
same,"Plant response rating (0 = no effect, 100 = complete control), Nutsedge, Yellow","[3]; 125 g ai/ha, preemergence",0
same,"Plant response rating, Nutsedge, Yellow",[3]; [10],25
same,"Plant response rating, Bermudagrass",[4]; [12],100
same,"Plant response rating (0 = no effect, 100 = complete control), Bermudagrass","[4]; 125 g ai/ha, preemergence",100
same,"Plant response rating, Bermudagrass",[4]; [11],100
same,"Plant response rating, Bermudagrass",[4]; [10],100
same,"Plant response rating, Foxtail, Giant",[5]; [9],20
same,"Plant response rating (0 = no effect, 100 = complete control), Foxtail, Giant","[5]; 125 g ai/ha, preemergence",90
same,"Plant response rating, Foxtail, Giant",[5]; [11],100
same,"Plant response rating, Foxtail, Giant",[5]; [10],100
same,"Plant response rating, Sunflower","[6]; 62 g ai/ha, scale 0 to 100",0
same,"Plant response rating (0 = no effect, 100 = complete control), Sunflower",[6]; 125 g ai/ha,0
same,"Plant response rating, Sunflower","[6]; 500 g ai/ha, scale 0 to 100 (0 no effect, 100 complete control), visual, 12 to 14 days",65
CCOC(=O)c1cccc(NC(=O)c2cc(C3(C)CC3)nn2CC)c1 [Compound 295],Barnyardgrass plant response rating,[7]; [13],0
same,Barnyardgrass plant response rating,[7]; [14],15
same,Barnyardgrass plant response rating,[7]; [15],25
same,"Plant response rating, Barnyardgrass",[7]; [16],40
same,"Plant response rating, Velvetleaf",[1]; [17],70
same,"Plant response rating, Velvetleaf",[1]; [18],65
same,"Plant response rating, Velvetleaf",[1]; [19],60
same,"Plant response rating, Cupgrass, Woolly",[2]; [17],15
same,"Plant response rating, Cupgrass, Woolly",[2]; [18],15
same,"Plant response rating, Cupgrass, Woolly",[2]; [19],10
same,"Plant response rating, Nutsedge, Yellow",[3]; [17],5
same,"Plant response rating, Nutsedge, Yellow",[3]; [18],5
same,"Plant response rating, Nutsedge, Yellow",[3]; [19],5
same,"Plant response rating, Bermudagrass",[4]; [17],0
same,"Plant response rating, Bermudagrass",[4]; [18],0
same,"Plant response rating, Bermudagrass","[4]; postemergence, 31 g ai/ha, scale 0 to 100",0
same,"Plant response rating, Bermudagrass",[4]; [19],0
same,"Plant response rating, Foxtail, Giant",[5]; [17],40
same,"Plant response rating, Foxtail, Giant",[5]; [18],35
same,"Plant response rating, Foxtail, Giant",[5]; [19],30
"CCn1nc(C(C)(C)C)cc1C(=O)Nc1cccc(C(=O)OCCF)c1 [Compound 82, 2-fluoroethyl 3-[[[3-(1,1-dimethylethyl)-1-ethyl-1H-pyrazol-5-yl]-carbonyl]amino]benzoate]",pest or weed control at 250 g/ha,"[1]; Abutilon theophrasti, post-emergence, Postemergence, 250 g ai/ha, scale 0 to 100, 0 no effect, 100 complete control, read-out: Plant response rating, Velvetleaf",70%
same,pest or weed control at 125 g/ha,"[1]; Abutilon theophrasti, post-emergence, postemergence, 125 g ai/ha, scale 0 to 100, read-out: Plant response rating, Velvetleaf",10%
same,pest or weed control at 62 g/ha,"[1]; Abutilon theophrasti, post-emergence, postemergence, 62 g ai/ha, scale 0 to 100, read-out: Plant response rating, Velvetleaf",5%
same,Velvetleaf plant response rating,[1]; [20],75
same,pest or weed control at 250 g/ha,"[2]; Eriochloa villosa, post-emergence, 312 h, Postemergence, 250 g ai/ha, scale 0 to 100, 0 no effect, 100 complete control, read-out: Plant response rating, Cupgrass, Woolly",80%
same,pest or weed control at 125 g/ha,"[2]; Eriochloa villosa, post-emergence, 312 h, postemergence, 125 g ai/ha, scale 0 to 100, read-out: Plant response rating, Cupgrass, Woolly",60%
same,"Cupgrass, Woolly plant response rating",[2]; [20],80
same,pest or weed control at 250 g/ha,"[3]; Cyperus, post-emergence, Postemergence, 250 g ai/ha, scale 0 to 100, 0 no effect, 100 complete control, read-out: Plant response rating, Nutsedge, Yellow",5%
same,pest or weed control at 125 g/ha,"[3]; Cyperus, post-emergence, postemergence, 125 g ai/ha, scale 0 to 100, read-out: Plant response rating, Nutsedge, Yellow",5%
same,pest or weed control at 62 g/ha,"[3]; Cyperus, post-emergence, postemergence, 62 g ai/ha, scale 0 to 100, read-out: Plant response rating, Nutsedge, Yellow",0%
same,"Nutsedge, Yellow plant response rating",[3]; [20],5
same,pest or weed control at 500 g/ha,[8]; [21],20%
same,pest or weed control at 2000 g/ha,[8]; [21],10%
same,pest or weed control at 500 g/ha,"[8]; pre-emergence, Preemergence, visual rating, 0 to 100 scale (0 no effect, 100 complete control), read-out: Morningglory plant response rating",0%
same,pest or weed control at 2000 g/ha,"[8]; pre-emergence, Preemergence, 0 to 100 scale, 0 no effect, 100 complete control, read-out: Morningglory plant response rating",15%
same,pest or weed control at 250 g/ha,"[4]; Cynodon dactylon, post-emergence, 312 h, Postemergence, 250 g ai/ha, scale 0 to 100, read-out: Bermudagrass plant response rating",0%
same,pest or weed control at 500 g/ha,"[4]; Cynodon dactylon, post-emergence, 312 h, Postemergence, 500 g ai/ha, scale 0 to 100, read-out: Bermudagrass plant response rating",10%
same,pest or weed control at 125 g/ha,"[4]; Cynodon dactylon, post-emergence, 312 h, postemergence, 125 g ai/ha, scale 0 to 100, read-out: Plant response rating, Bermudagrass",0%
same,pest or weed control at 62 g/ha,"[4]; Cynodon dactylon, post-emergence, 312 h, postemergence, 62 g ai/ha, scale 0 to 100, read-out: Plant response rating, Bermudagrass",0%
same,"Foxtail, Giant plant response rating",[5]; [20],30
same,pest or weed control at 250 g/ha,"[5]; Setaria faberi, post-emergence, 312 h, Postemergence, 250 g ai/ha, scale 0 to 100, 0 no effect, 100 complete control, read-out: Plant response rating, Foxtail, Giant",10%
same,pest or weed control at 125 g/ha,"[5]; Setaria faberi, post-emergence, 312 h, postemergence, 125 g ai/ha, scale 0 to 100, read-out: Plant response rating, Foxtail, Giant",0%
same,pest or weed control at 62 g/ha,"[5]; Setaria faberi, post-emergence, 312 h, postemergence, 62 g ai/ha, scale 0 to 100, read-out: Plant response rating, Foxtail, Giant",0%
CCc1nn(C(C)C)nc1C(=O)Nc1cccc(C(=O)N2CCCCC2)c1 [Compound 385],Barnyardgrass plant response rating,[7]; [13],20
same,Barnyardgrass plant response rating,[7]; [14],55
same,Barnyardgrass plant response rating,[7]; [15],80
same,"Plant response rating, Barnyardgrass",[7]; [16],85
same,"Plant response rating, Velvetleaf",[1]; [9],50
same,"Plant response rating (0 = no effect, 100 = complete control), Velvetleaf","[1]; 125 g ai/ha, preemergence",85
same,"Plant response rating, Velvetleaf",[1]; [11],100
same,"Plant response rating, Velvetleaf",[1]; [10],100
same,"Plant response rating, Cupgrass, Woolly",[2]; [9],0
same,"Plant response rating (0 = no effect, 100 = complete control), Cupgrass, Woolly","[2]; 125 g ai/ha, preemergence",60
same,"Plant response rating, Cupgrass, Woolly",[2]; [11],80
same,"Plant response rating, Cupgrass, Woolly",[2]; [10],95
same,"Plant response rating, Nutsedge, Yellow",[3]; [9],100
same,"Plant response rating (0 = no effect, 100 = complete control), Nutsedge, Yellow","[3]; 125 g ai/ha, preemergence",100
same,"Plant response rating, Nutsedge, Yellow",[3]; [11],100
same,"Plant response rating, Nutsedge, Yellow",[3]; [10],100
same,"Plant response rating, Bermudagrass",[4]; [12],55
same,"Plant response rating (0 = no effect, 100 = complete control), Bermudagrass","[4]; 125 g ai/ha, preemergence",85
same,"Plant response rating, Bermudagrass",[4]; [11],100
same,"Plant response rating, Bermudagrass",[4]; [10],100
same,"Plant response rating, Foxtail, Giant",[5]; [9],40
same,"Plant response rating (0 = no effect, 100 = complete control), Foxtail, Giant","[5]; 125 g ai/ha, preemergence",80
same,"Plant response rating, Foxtail, Giant",[5]; [11],95
same,"Plant response rating, Foxtail, Giant",[5]; [10],100
